Results as given in ChEMBL document CHEMBL1201862, “PubChem BioAssay data set” (2004).
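Compound exposure: 48 hours, 5 concentrations, 96-well plates. GI50 = concentration required for 50% inhibition of growth.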 Calls of active or inactive are those of the source. Cut-off read from the data, not from the text of the source: active = GI50 up to about 1.1 µM and inactive = higher.

Legend:
Assay in all cases: growth of human tumour cells (NCI), 48 h
[1] = system: MCF7
[2] = system: HL-60
[3] = system: EKVX
[4] = system: CCRF-CEM
[5] = system: HOP-92
[6] = system: T47D
[7] = system: HT-29
[8] = system: M14
[9] = system: DU-145
[10] = system: OVCAR-5
[11] = system: COLO 205
[12] = system: HCT-116
[13] = system: UACC-62
[14] = system: HCT-15
[15] = system: NCI-H522
[16] = system: 786-0
[17] = system: CAKI-1
[18] = system: HCC 2998
[19] = system: SF-268
[20] = system: BT-549

SMILES	GI50 [1]	GI50 [2]	GI50 [3]	GI50 [4]	GI50 [5]	GI50 [6]	GI50 [7]	GI50 [8]	GI50 [9]	GI50 [10]	GI50 [11]	GI50 [12]	GI50 [13]	GI50 [14] [µM]	GI50 [15]	GI50 [16]	GI50 [17]	GI50 [18]	GI50 [19]	GI50 [20]
COC1=CCC2=C(CCN(C(=O)C3CCC3)C2Cc2ccc(OC)c(O)c2)C1 (configuration not stated)	7.14 µM (inactive)	4.3 µM (inactive)	25.7 µM (inactive)	21.8 µM (inactive)	20.9 µM (inactive)	19.4 µM (inactive)	20.3 µM (inactive)	16.9 µM (inactive)	20.3 µM (inactive)	29.5 µM (inactive)	16 µM (inactive)	11.9 µM (inactive)	20.4 µM (inactive)	4.85	16.6 µM (inactive)	18.2 µM (inactive)	30.6 µM (inactive)	15.1 µM (inactive)	33.1 µM (inactive)	
C[C@@H](c1ccccc1)n1c(N)c(-c2ccccn2)c2ccc([N+](=O)[O-])cc2c1=O		52.4 µM (inactive)		32.1 µM (inactive)	33.3 µM (inactive)	43.2 µM (inactive)	> 100 µM (inactive)		31.8 µM (inactive)		38.2 µM (inactive)	79.4 µM (inactive)	> 100 µM (inactive)	86.1	48.2 µM (inactive)	> 100 µM (inactive)	51.8 µM (inactive)	> 100 µM (inactive)	> 100 µM (inactive)	44.1 µM (inactive)
Cn1c(=O)c2/c(n(C)c1=O)=N\C=c1\c(=O)n(C)c(=O)n(C)\c1=N\C=2		> 100 µM (inactive)	> 100 µM (inactive)	> 100 µM (inactive)	> 100 µM (inactive)		> 100 µM (inactive)	> 100 µM (inactive)		> 100 µM (inactive)	> 100 µM (inactive)	> 100 µM (inactive)	> 100 µM (inactive)	> 100	> 100 µM (inactive)	> 100 µM (inactive)	> 100 µM (inactive)	> 100 µM (inactive)	> 100 µM (inactive)	
Cc1ccc(Nc2cc(=O)[nH]c(=O)[nH]2)cc1CS			> 100 µM (inactive)	> 100 µM (inactive)	> 100 µM (inactive)	> 100 µM (inactive)	> 100 µM (inactive)	> 100 µM (inactive)		> 100 µM (inactive)	> 100 µM (inactive)	> 100 µM (inactive)	> 100 µM (inactive)	> 100	> 100 µM (inactive)	> 100 µM (inactive)	> 100 µM (inactive)	> 100 µM (inactive)	61.4 µM (inactive)	58.1 µM (inactive)
C[C@]12CC[C@H]3[C@@H](CCC4=C/C(=N/OCCN5CCCCC5)CC[C@@]43C)[C@@H]1CC[C@@H]2O	12 µM (inactive)	2.99 µM (inactive)	27.3 µM (inactive)	9.31 µM (inactive)		28 µM (inactive)	1.37 µM (inactive)	8.02 µM (inactive)	21.9 µM (inactive)	16.1 µM (inactive)	16.1 µM (inactive)	19.3 µM (inactive)	> 10 µM (inactive)	8.04	12.2 µM (inactive)	19.3 µM (inactive)	28.8 µM (inactive)	14.4 µM (inactive)		15.4 µM (inactive)
CCCCCCCCCCCCCCCCCC(=O)OCC(COC1OC(COP(=O)(O)O)C(O)C(O)C1O)OC(=O)CCCCCCCCCCCCCCCCC (configuration not stated)	8.38 µM (inactive)	12.4 µM (inactive)	7.74 µM (inactive)	4.95 µM (inactive)	4.14 µM (inactive)	11.9 µM (inactive)	5.32 µM (inactive)	9.14 µM (inactive)	9.62 µM (inactive)	5.28 µM (inactive)	9.59 µM (inactive)	8.83 µM (inactive)	8.57 µM (inactive)	7.52		7.94 µM (inactive)	9.73 µM (inactive)	7.29 µM (inactive)	8.97 µM (inactive)	
COc1ccc2[nH]c3c([N+](=O)[O-])ccc(NCCN(C)C)c3/c(=N/CCN(C)C)c2c1	0.453 µM (active)	1.31 µM (inactive)	2.24 µM (inactive)	0.237 µM (active)	5.08 µM (inactive)	> 10 µM (inactive)	1.77 µM (inactive)	> 10 µM (inactive)	2.88 µM (inactive)		2.01 µM (inactive)		7.23 µM (inactive)	1.31		0.577 µM (active)	3.97 µM (inactive)	0.867 µM (active)	0.962 µM (active)	
O=[N+]([O-])c1ccc(Cl)cc1N/N=C/c1cccs1	9.95 µM (inactive)	> 100 µM (inactive)	> 100 µM (inactive)	> 100 µM (inactive)		26.4 µM (inactive)	> 100 µM (inactive)	> 100 µM (inactive)	> 100 µM (inactive)		> 100 µM (inactive)	> 100 µM (inactive)	> 100 µM (inactive)	> 100	> 100 µM (inactive)	> 100 µM (inactive)	> 100 µM (inactive)	> 100 µM (inactive)	> 100 µM (inactive)	> 100 µM (inactive)
CCCCCCCCCCCCC/C=C/[C@@H](O)[C@H](COC1OC(CO)C(OC2OC(CO)C(O)C(OC3(C(=O)O)CC(O)C(NC(C)=O)C(C(O)C(O)CO)O3)C2O)C(O)C1O)N=[N+]=[N-] (some centres not stated)	> 100 µM (inactive)	37.5 µM (inactive)	> 100 µM (inactive)	22.5 µM (inactive)	> 100 µM (inactive)	48.5 µM (inactive)	22 µM (inactive)	18.7 µM (inactive)	> 100 µM (inactive)	56 µM (inactive)	17.8 µM (inactive)	70.1 µM (inactive)	15.8 µM (inactive)	72.9	32.5 µM (inactive)	> 100 µM (inactive)	> 100 µM (inactive)	> 100 µM (inactive)	22.2 µM (inactive)	
COc1ccccc1NC(=O)CC(=O)N/N=C/c1ccc(N(CCC#N)S(=O)(=O)c2ccccc2)cc1		> 100 µM (inactive)	> 100 µM (inactive)	> 100 µM (inactive)	> 100 µM (inactive)		> 100 µM (inactive)	> 100 µM (inactive)		> 100 µM (inactive)	> 100 µM (inactive)	> 100 µM (inactive)	> 100 µM (inactive)	> 100	> 100 µM (inactive)	> 100 µM (inactive)	> 100 µM (inactive)	> 100 µM (inactive)	> 100 µM (inactive)	
Cc1cc2nn(C3CCCCO3)nc2cc1C (configuration not stated)	> 100 µM (inactive)		> 100 µM (inactive)	> 100 µM (inactive)		> 100 µM (inactive)	> 100 µM (inactive)	> 100 µM (inactive)	> 100 µM (inactive)	> 100 µM (inactive)	> 100 µM (inactive)	> 100 µM (inactive)	> 100 µM (inactive)	> 100	> 100 µM (inactive)	> 100 µM (inactive)	> 100 µM (inactive)	> 100 µM (inactive)	> 100 µM (inactive)	> 100 µM (inactive)
Oc1ccc2c(O)cc(-c3ccccc3)nc2c1		21.5 µM (inactive)	35.9 µM (inactive)	18.2 µM (inactive)	29.3 µM (inactive)		23.3 µM (inactive)	19.7 µM (inactive)		58.9 µM (inactive)	17 µM (inactive)	17.4 µM (inactive)	19.9 µM (inactive)	15.8	27 µM (inactive)	31.2 µM (inactive)	24.4 µM (inactive)	34 µM (inactive)	32.4 µM (inactive)	
[N-]=[N+]=Nc1ccc2c(c1)Sc1ccccc1N2CCCCN1CCN(Cc2ccc(C(=O)c3ccc(CSCC(N)C(=O)O)cc3)cc2)CC1 (configuration not stated)	16.4 µM (inactive)	6.55 µM (inactive)	52.8 µM (inactive)	14.3 µM (inactive)	9.84 µM (inactive)		14 µM (inactive)		21.3 µM (inactive)	52.4 µM (inactive)	13.6 µM (inactive)	15.2 µM (inactive)	11.3 µM (inactive)	14.2	12.5 µM (inactive)	12.1 µM (inactive)	20.7 µM (inactive)	24.9 µM (inactive)	27.5 µM (inactive)	18 µM (inactive)
C=C1C(=O)OC2CC3(C)C=CC(=O)C(=C)C3CC12 (configuration not stated)		0.769 µM (active)	2.77 µM (inactive)	0.317 µM (active)	1.91 µM (inactive)		1.65 µM (inactive)	1.46 µM (inactive)		3.24 µM (inactive)	1.63 µM (inactive)	1.28 µM (inactive)	1.5 µM (inactive)	1.71	0.47 µM (active)	1.76 µM (inactive)	1.36 µM (inactive)	2.6 µM (inactive)	2.59 µM (inactive)	
c1ccc2c(c1)N[C@@H]1c3[nH]c4ccccc4c3CC[C@H]21		16.1 µM (inactive)	13.5 µM (inactive)	15 µM (inactive)	14.4 µM (inactive)	16.7 µM (inactive)	15.6 µM (inactive)	13.5 µM (inactive)	16.9 µM (inactive)	13.2 µM (inactive)	14.7 µM (inactive)	14.7 µM (inactive)	17.6 µM (inactive)	23	11.6 µM (inactive)	15.1 µM (inactive)	18.2 µM (inactive)		22.4 µM (inactive)	18.8 µM (inactive)
CCN(CCCl)c1cc(CN(C)C)cc(NC(=O)c2ccc(C(=O)Nc3cccc(CN(C)C)c3)cc2)c1	0.11 µM (active)	0.0467 µM (active)		0.0708 µM (active)	0.512 µM (active)	1.91 µM (inactive)	1.35 µM (inactive)	4.27 µM (inactive)	3.74 µM (inactive)	10.6 µM (inactive)	1.13 µM (inactive)	0.51 µM (active)	1.27 µM (inactive)	32.4	0.0161 µM (active)	0.383 µM (active)	32.6 µM (inactive)	1.26 µM (inactive)	0.364 µM (active)	
